Patent US10556926B2, “Synthetic artificial peptides with antimicrobial effect” (priority 2014, dated 2020)
Values after ≈ are worked out from the molar mass of the structure shown. Like-named read-outs stand apart in the source and are kept apart here. No end group written: not given here.

Assays:
[1] = tested on: E. coli DH5α; conditions: MHB, 18 hours at 37° C.; mean of four test series
Summary of the method: (§1)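 Broth microdilution MIC per CLSI/EUCAST, adapted for cationic peptides, in Mueller-Hinton broth. Peptides at final 64 to 0.25 μM (2-fold series) with 5·10^4 bacteria/ml, 18 h at 37° C with shaking; growth read as absorbance at 600 nm.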

[2] = tested on: Staphylococcus xylosus; conditions: MHB, 18 hours at 37° C.; mean of four test series
Summary of the method: as §1

[3] = tested on: human histiocytic lymphoma cell line U937; test: Long-term growth inhibition, minimum toxic concentration (MTC)
Summary of the method: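 U937 cells (5·10^4/ml final, RPMI 1640 + 2 mM glutamine + 10% FCS) exposed to peptides at 0.25–64 µM for 2 h at 37 °C, 5% CO2, then cultured at least four further days. MTC taken as the lowest peptide concentration giving complete growth suppression after four days.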

[4] = U937, complete suppression of cell growth after four days

Compound | MIC E. coli [1] [µM] | MIC S. xylosus [2] [µM] | Toxicity MTC (minimum toxic concentration) [3, 4] [µM] | Toxicity MTC (minimum toxic concentration) [3] [µM]
CC[C@H](C)[C@H](NC(=O)CN)C(=O)NCC(=O)N[C@@H](C)C(=O)N[C@H](C(=O)N[C@@H](CC(C)C)C(=O)N[C@@H](CCCCN)C(=O)N[C@H](C(=O)N[C@@H](CC(C)C)C(=O)N[C@H](C(=O)N[C@H](C(=O)NCC(=O)N[C@@H](CC(C)C)C(=O)N1CCC[C@H]1C(=O)N[C@@H](C)C(=O)N[C@@H](CC(C)C)C(=O)N[C@H](C(=O)N[C@@H](CO)C(=O)N[C@@H](Cc1c[nH]c2ccccc12)C(=O)N[C@H](C(=O)N[C@@H](CCCCN)C(=O)N[C@@H](CCCNC(=N)N)C(=O)N[C@@H](CCCCN)C(=O)N[C@@H](CCCNC(=N)N)C(=O)N[C@@H](CCC(N)=O)C(=O)N[C@@H](CCC(N)=O)C(N)=O)[C@@H](C)CC)[C@@H](C)CC)[C@@H](C)O)[C@@H](C)O)C(C)C)C(C)C [Melittin] | 8 (≈ 22.8 µg/mL) | 2 (≈ 5.69 µg/mL) | 2.0 | –
ILPWKWPWWPWRR [Indolicidin] | 4 | 32 | >64 | –
KILILIKRK-OH [N4] | 32 | 16 | – | >64
KRKRKILILIKRK-OH [N1] | 8 | 0.5 | – | 32
MPRRRRSSSRPVRRRRRPRVSRRRRRRGGRRR (Protamine) | 8 | 0.5 | – | 16
